The record followed here is patent publication US9526785B2, “Pharmaceuticals for oral delivery” (Enteris BioPharma, Inc., priority 2013, dated 2016).

Data set [1] in a line: Kanamycin and tobramycin plasma PK after IV bolus in dogs. The format is in vivo, Beagle dogs. How it is done: (§1) Adult Beagle dogs weighing approximately 10 to 15 kg were used in the study. The animals were housed at Sinclair Research Center, Columbia, Mo. either individually or in pairs in over-sized dog runs. […] A 12-hour light/12-hour dark photoperiod was maintained. Room temperature was set to be maintained at 20±5° C. Relative humidity was monitored but not controlled. Animal room and pen cleaning were performed according to the testing facility (Sinclair) SOPs.
(§2) Animals were fasted overnight prior to drug administration and throughout the blood collection period.
(§3) Adult female Beagle dogs, weighing 9-15 kg were used in the oral and IV studies. Dogs were fasted overnight before the beginning of each study but were allowed free access to water. On the day of the study, one pre-dose blood sample of 3 mL was collected from each animal.
(§4) After administration of the drug, 3 mL blood samples were collected from the brachial vein at various time-points up to 240 minutes (4 hours) post-administration. Blood samples were collected into new heparinized monovette sampling syringes. The samples were placed on ice before being centrifuged for 10 minutes at approximately 2750 rpm at 2-8° C. Each tube was labeled with the dog ID # and time-point, and they were stored at −20° C. pending shipment.
Plasma samples were diluted appropriately with the kit assay buffer.
The maximum plasma concentration (Cmax) values and their times of occurrence (Tmax) were obtained directly from the plasma concentration vs. time profiles. The areas under the plasma concentration-time curves (AUClast) were estimated by the linear trapezoidal rule from time zero to the time of the last observed plasma concentration.

The nature of a further data set: in vivo. To be noted: female, beagle, dog, po. How it is done:
as §1, §2, §3, §4
Plasma samples were diluted appropriately with the kit assay buffer. […]

The mark [2] stands for this setting: female, beagle, dog, in vivo, iv, 0.1 mg.

Each structure is given as a SMILES string. Values joined by “and” are separate entries in the source; they are usually repeats but may differ in a detail not shown here. Identical values can stand only once. Like-named read-outs stand apart in the source and are kept apart here.

Turning to `NC[C@H]1O[C@H](O[C@H]2[C@H](O)[C@@H](O[C@H]3O[C@H](CO)[C@@H](O)[C@H](N)[C@H]3O)[C@H](N)C[C@@H]2N)[C@H](O)[C@@H](O)[C@@H]1O` [Kanamycin], the concentration at 0 min worked out at 0 ng/mL in data set [1] (female, Beagle, dog, plasma, iv, 0.1 mg, single IV bolus 0.10 mg, 0 min, read-out: Plasma Concentration, Mean) and 0 ng/mL in data set [1] (female, Beagle, dog, plasma, iv, 0.1 mg, single IV bolus 0.10 mg, 0 min, read-out: Plasma Concentration, individual dogs). Also, the concentration at 5 min in data set [1] (female, Beagle, dog, plasma, iv, 0.1 mg, single IV bolus 0.10 mg, 5 min) was 40.8 ng/mL. Further, the concentration at 10 min in data set [1] (female, Beagle, dog, plasma, iv, 0.1 mg, single IV bolus 0.10 mg, 10 min) was 38.6 ng/mL. In data set [1] (female, Beagle, dog, plasma, iv, 0.1 mg, single IV bolus 0.10 mg, 15 min), this compound registered a concentration at 15 min of 40.3 ng/mL. The same compound showed a concentration at 20 min in data set [1] (female, Beagle, dog, plasma, iv, 0.1 mg, single IV bolus 0.10 mg, 20 min) of 32.1 ng/mL. The concentration at 30 min in data set [1] (female, Beagle, dog, plasma, iv, 0.1 mg, single IV bolus 0.10 mg, 30 min) was 34.6 ng/mL. Also, the concentration at 40 min in data set [1] (female, Beagle, dog, plasma, iv, 0.1 mg, single IV bolus 0.10 mg, 40 min, read-out: Plasma Concentration, Mean) is 27.2 ng/mL; in data set [1] (female, Beagle, dog, plasma, iv, 0.1 mg, single IV bolus 0.10 mg, 40 min, read-out: Plasma Concentration, individual dogs), 29.9 ng/mL. Further, the concentration at 60 min in data set [1] (female, Beagle, dog, plasma, iv, 0.1 mg, single IV bolus 0.10 mg, 60 min, read-out: Plasma Concentration, Mean) is 25.6 ng/mL; in data set [1] (female, Beagle, dog, plasma, iv, 0.1 mg, single IV bolus 0.10 mg, 60 min, read-out: Plasma Concentration, individual dogs) it was 31 ng/mL. Further, the concentration at 90 min in data set [1] (female, Beagle, dog, plasma, iv, 0.1 mg, single IV bolus 0.10 mg, 90 min) was 9.24 ng/mL. In data set [1] (female, Beagle, dog, plasma, iv, 0.1 mg, single IV bolus 0.10 mg, 120 min), the concentration at 120 min is 10 ng/mL. This compound also returned a concentration at 240 min in data set [1] (female, Beagle, dog, plasma, iv, 0.1 mg, single IV bolus 0.10 mg, 240 min) of 1.61 ng/mL. Further, the AUC in data set [1] (female, Beagle, dog, plasma, iv, 0.1 mg, single IV bolus 0.10 mg, read-out: AUC, Mean (converted)) is 54.2 ng·h/mL; in data set [1] (female, Beagle, dog, plasma, iv, 0.1 mg, single IV bolus 0.10 mg, read-out: AUC, individual dogs (converted)), 46.5 ng·h/mL. Also, the Cmax in data set [1] (female, Beagle, dog, plasma, iv, 0.1 mg, single IV bolus 0.10 mg, read-out: Cmax, Mean) was 50 ng/mL. Besides, the “AUC, individual dogs” value in data set [1] (single IV bolus 0.10 mg) was 3806 ng·min/mL and 3169 ng·min/mL. The “Cmax, Mean” value in data set [1] (single IV bolus 0.10 mg) was 50.21 ng/mL. Moreover, in data set [1] (single IV bolus 0.10 mg), the “Cmax, individual dogs” value is 77.73 ng/mL and 54.88 ng/mL and 18.01 ng/mL. In data set [1] (single IV bolus 0.10 mg), the “Tmax, individual dogs” value is 15 min and 60 min. Moreover, the “Plasma Concentration, individual dogs” value in data set [1] (single IV bolus 0.10 mg, 0 min) was 0 ng/mL; in data set [1] (single IV bolus 0.10 mg, 5 min) it was 77.73 ng/mL and 40.56 ng/mL and 3.97 ng/mL; in data set [1] (single IV bolus 0.10 mg, 10 min), 37.75 ng/mL and 7.52 ng/mL; in data set [1] (single IV bolus 0.10 mg, 15 min), 9.70 ng/mL; in data set [1] (single IV bolus 0.10 mg, 20 min) it was 39.87 ng/mL and 14.59 ng/mL; in data set [1] (single IV bolus 0.10 mg, 30 min), 43.81 ng/mL and 42.52 ng/mL and 17.48 ng/mL. The “Plasma Concentration, individual dogs” value in data set [1] (single IV bolus 0.10 mg, 40 min) is 34.08 ng/mL and 17.58 ng/mL; in data set [1] (single IV bolus 0.10 mg, 60 min), 27.79 ng/mL and 18.01 ng/mL; in data set [1] (single IV bolus 0.10 mg, 90 min), 0 ng/mL and 9.81 ng/mL and 17.91 ng/mL; in data set [1] (single IV bolus 0.10 mg, 120 min), 0 ng/mL and 13.36 ng/mL and 16.63 ng/mL; in data set [1] (single IV bolus 0.10 mg, 240 min), 0 ng/mL (2×) and 4.84 ng/mL.
In the case of `NC[C@H]1O[C@H](O[C@H]2[C@H](O)[C@@H](O[C@H]3O[C@H](CO)[C@@H](O)[C@H](N)[C@H]3O)[C@H](N)C[C@@H]2N)[C@H](N)C[C@@H]1O` [Tobramycin], in data set [1] (female, Beagle, dog, in vivo, iv, 0.1 mg, AUC, Mean), the AUC was 29.7 ng·h/mL. The Cmax in data set [1] (female, Beagle, dog, in vivo, iv, 0.1 mg, Cmax, individual dogs) worked out at 38.4 ng/mL; in data set [1] (female, beagle, dog, in vivo, iv, 0.1 mg, Cmax, Mean), 31 ng/mL. Besides, the time of peak concentration (Tmax) in data set [1] (female, Beagle, dog, in vivo, iv, 0.1 mg, individual dogs) was 5 min; in data set [1] (female, beagle, dog, in vivo, iv, 0.1 mg, Mean) it was 5 min. Moreover, the “Cmax, Mean” value in data set [1] (setting [2]) is reported as 31.22 ng/mL. Besides, the “Tmax, individual dogs” value in data set [1] (setting [2]) is on record as 5 min. In the data set “in vivo”, the bioavailability was 15%.
